Assay results from paper PMC9033183 (RSC Advances, 2021).
Several values for one entry are separate records, joined by “and”; a condition that tells them apart may be missing. Equal values may be shown once. Entries after “also recorded” stand apart in the source; their conditions may differ.

Columns and labels:
[1] = target: aldehyde reductase (ALR1) (Bos taurus, UniProt Q3ZCJ2); assay: Aldehyde reductase; format: biochemical, calf; details: for IC50: ALR1 IC50(μM) ± SEM, enzyme partially purified from calf kidneys, triplicate
Chain of aldehyde reductase (ALR1) (Q3ZCJ2 whole entry): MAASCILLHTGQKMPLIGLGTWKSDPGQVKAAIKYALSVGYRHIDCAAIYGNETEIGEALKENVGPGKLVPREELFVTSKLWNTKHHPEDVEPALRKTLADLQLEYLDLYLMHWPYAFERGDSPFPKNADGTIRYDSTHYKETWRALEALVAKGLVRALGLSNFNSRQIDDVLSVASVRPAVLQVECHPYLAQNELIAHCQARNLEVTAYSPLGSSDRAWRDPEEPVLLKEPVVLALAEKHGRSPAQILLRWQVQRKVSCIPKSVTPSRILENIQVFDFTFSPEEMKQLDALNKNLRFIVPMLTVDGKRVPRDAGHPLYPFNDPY

[2] = target: aldose reductase (ALR2) (Bos taurus, UniProt P16116); assay: Aldose reductase; format: biochemical, calf; details: for selectivity for ALR2 over ALR1, result in words: ALR2 IC50 compared with ALR1 percent inhibition

| SMILES | ALR1 inhibitory activity, result in words [1] | IC50 [1] | ALR2 inhibitory activity, result in words [2] | selectivity for ALR2 over ALR1, result in words [2] |
| --- | --- | --- | --- | --- |
| CC(=N/N=c1\scc(-c2ccc(Br)cc2)n1-c1ccccc1)C12CC3CC(CC(C3)C1)C2 [Compound 6a, (2Z)-2-((1-(adamantan-1-yl)ethylidene)hydrazono)-4-(4-bromophenyl)-3-phenyl-2,3-dihydrothiazole] | active inhibitors | 3.29 ± 1.47 µM | active inhibitors | – |
| COc1cccc(-n2c(-c3ccc([N+](=O)[O-])cc3)cs/c2=N/N=C(/C)c2ccc3c(c2)NC(=O)CO3)c1 [Compound 5f, 6-((E)-1-((Z)-(3-(3-methoxyphenyl)-4-(4-nitrophenyl)thiazol-2(3H)-ylidene) hydrazono)ethyl)-2H-benzo[b][1,4]oxazin-3(4H)-one] | active inhibitors | 3.13 µM and 3.24 µM | active inhibitors | – |
| COc1cccc(-n2c(-c3ccc([N+](=O)[O-])cc3)cs/c2=N/N=C\c2c[nH]c3ccccc23)c1 [Compound 8f, (Z)-2-((E)-((1H-indol-3-yl)methylene)hydrazono)-3-(3-methoxyphenyl)-4-(4-nitrophenyl)-2,3-dihydrothiazole] | – | – | – | selective ALR2 inhibitor |
| COc1cccc(-n2c(-c3ccc(Cl)cc3)cs/c2=N/N=C(/C)c2ccc3c(c2)NC(=O)CO3)c1 [Compound 5j, 6-((E)-1-((Z)-(4-(4-chlorophenyl)-3-(3-methoxyphenyl)thiazol-2(3H)-ylidene) hydrazono)ethyl)-2H-benzo[b][1,4]oxazin-3(4H)-one] | weak activity | – | weak activity | – |
| CC(=N/N=c1\scc(-c2ccc(Cl)cc2)n1Cc1ccccc1)C12CC3CC(CC(C3)C1)C2 [Compound 6e, (2Z)-2-((1-(adamantan-1-yl)ethylidene)hydrazono)-3-benzyl-4-(4-chlorophenyl)-2,3-dihydrothiazole] | – | – | – | selective ALR2 inhibitors; also recorded: good inhibitory activity and selectively against ALR2 |
| CC(=N/N=c1\scc(-c2ccc(Cl)cc2)n1-c1c(C)cccc1C)C12CC3CC(CC(C3)C1)C2 [Compound 6f, (2Z)-2-((1-(adamantan-1-yl)ethylidene)hydrazono)-4-(4-chlorophenyl)-3-(2,6-dimethylphenyl)-2,3-dihydrothiazole] | – | – | – | selective ALR2 inhibitors; also recorded: good inhibitory activity and selectively against ALR2 |
| COc1cccc(-n2c(-c3ccc(Br)cc3)cs/c2=N/N=C(/C)c2ccc3c(c2)NC(=O)CO3)c1 [Compound 5b, 6-((E)-1-((Z)-(4-(4-bromophenyl)-3-(3-methoxyphenyl)thiazol-2(3H)-ylidene) hydrazono)ethyl)-2H-benzo[b][1,4]oxazin-3(4H)-one] | weak activity | – | weak activity | – |
| C/C(=N/N=c1/scc(-c2ccc(Br)cc2)n1Cc1ccccc1)c1ccc2c(c1)OCCO2 [Compound 7b, (Z)-3-benzyl-4-(4-bromophenyl)-2-((E)-(1-(2,3-dihydrobenzo[b][1,4]dioxin-6-yl)ethylidene)hydrazono)-2,3-dihydrothiazole] | – | – | – | selective ALR2 inhibitors; also recorded: excellent selectivity; also recorded: considerably selective activity against ARL2; also recorded: significantly selective |
| CC(=N/N=c1\scc(-c2ccc(Br)cc2)n1-c1c(C)cccc1C)C12CC3CC(CC(C3)C1)C2 [Compound 6d, (2Z)-2-((1-(adamantan-1-yl)ethylidene)hydrazono)-4-(4-bromophenyl)-3-(2,6-dimethylphenyl)-2,3-dihydrothiazole] | – | – | – | selective ALR2 inhibitors; also recorded: good inhibitory activity and selectively against ALR2 |
| CC(=N/N=c1\scc(-c2ccc(Br)cc2)n1-c1ccccc1C)C12CC3CC(CC(C3)C1)C2 [Compound 6c, (2Z)-2-((1-(adamantan-1-yl)ethylidene)hydrazono)-4-(4-bromophenyl)-3-(o-tolyl)-2,3-dihydrothiazole] | active inhibitors | 4.07 ± 2.35 µM | active inhibitors | – |
| C/C(=N/N=c1/scc(-c2ccc(Br)cc2)n1-c1c(C)cccc1C)c1ccc2c(c1)OCCO2 [Compound 7c, (Z)-4-(4-bromophenyl)-2-((E)-(1-(2,3-dihydrobenzo[b][1,4]dioxin-6-yl)ethylidene) hydrazono)-3-(2,6-dimethylphenyl)-2,3-dihydrothiazole] | – | – | – | selective ALR2 inhibitors |
| CC(=N/N=c1\scc(-c2ccc(Br)cc2)n1-c1cccc2ccccc12)C12CC3CC(CC(C3)C1)C2 [Compound 6b, (2Z)-2-((1-(adamantan-1-yl)ethylidene)hydrazono)-4-(4-bromophenyl)-3-(naphthalen-1-yl)-2,3-dihydrothiazole] | active inhibitors | 4.93 ± 1.86 µM | active inhibitors | – |
| C/C(=N/N=c1/scc(-c2ccc(Br)cc2)n1-c1ccccc1)c1ccc2c(c1)OCCO2 [Compound 7a, (Z)-4-(4-bromophenyl)-2-((E)-(1-(2,3-dihydrobenzo[b][1,4]dioxin-6-yl)ethylidene) hydrazono)-3-phenyl-2,3-dihydrothiazole] | – | – | – | selective ALR2 inhibitors |

Second part, led by results:

| ALR1 inhibitory activity, result in words [1] | IC50 [1] | ALR2 inhibitory activity, result in words [2] | SMILES | selectivity for ALR2 over ALR1, result in words [2] |
| --- | --- | --- | --- | --- |
| active inhibitors | 3.14 ± 0.41 µM | active inhibitors | C/C(=N/N=c1/scc(-c2ccc(Cl)cc2)n1-c1ccccc1)c1ccc2c(c1)OCCO2 [Compound 7g, (Z)-4-(4-chlorophenyl)-2-((E)-(1-(2,3-dihydrobenzo[b][1,4]dioxin-6-yl)ethylidene) hydrazono)-3-phenyl-2,3-dihydrothiazole] | – |
| active inhibitors | 2.2 ± 0.92 µM | active inhibitors | C/C(=N/N=c1/scc(-c2ccc(Cl)cc2)n1Cc1ccccc1)c1ccc2c(c1)OCCO2 [Compound 7i, (Z)-3-benzyl-4-(4-chlorophenyl)-2-((E)-(1-(2,3-dihydrobenzo[b][1,4]dioxin-6-yl)ethylidene)hydrazono)-2,3-dihydrothiazole] | – |
| active inhibitors | 2.94 ± 1.34 µM | active inhibitors | O=[N+]([O-])c1ccc(-c2cs/c(=N/N=C\c3c[nH]c4ccccc34)n2Cc2ccccc2)cc1 [Compound 8e, (Z)-2-((E)-((1H-indol-3-yl)methylene)hydrazono)-3-benzyl-4-(4-nitrophenyl)-2,3-dihydrothiazole] | – |
| active inhibitors | 2.94 ± 1.73 µM | active inhibitors | C/C(=N/N=c1/scc(-c2ccc(Cl)cc2)n1-c1ccc(F)cc1)c1ccc2c(c1)OCCO2 [Compound 7h, (Z)-4-(4-chlorophenyl)-2-((E)-(1-(2,3-dihydrobenzo[b][1,4]dioxin-6-yl)ethylidene) hydrazono)-3-(4-fluorophenyl)-2,3-dihydrothiazole] | – |
